Laboratory results published in patent US6492381B1, “Tricyclic carbamate compounds useful for inhibition of G-protein function and for treatment of proliferative diseases” (Schering Corp., priority 1993, dated 2002).
Read-outs that look alike come from different tables or passages of the source.

Legend:
[1] = biological target: T1, farnesyl protein transferase (FPT) (Rattus norvegicus, UniProt Q02293+Q04631); assay: In vitro enzyme assay: inhibition of farnesyl protein transferase; assay type: biochemical
T1 construct: were partially purified from rat brain by ammonium sulfate fractionation followed by Q-Sepharose; from tissue; host or cells: rat brain
Method: (§1) 1. In vitro enzyme assays: Inhibition of farnesyl protein transferase and geranylgeranyl protein transferase.
Human farnesyl protein transferase was also expressed in E. coli, using cDNA clones encoding both the α and β subunits. […] Two forms of val^12-Ha-Ras protein were prepared as substrates for these enzymes, differing in their carboxy terminal sequence. One form terminated in cysteine-valine-leucine-serine (Ras-CVLS) the other in cystein-valine-leucine-leucine (Ras-CVLL). Ras-CVLS is a substrate for the farnesyl protein transferase while Ras-CVLL is a substrate for geranylgeranyl protein transferase I. The cDNAs encoding these proteins were constructed so that the proteins contain an amino-terminal extension of 6 histidine residues. Both proteins were expressed in Escherichia coli and purified using metal chelate affinity chromatography. The radiolabelled isoprenyl pyrophosphate substrates, [^3H]farnesyl pyrophosphate and [^3H]geranylgeranyl pyrophosphate, were purchased from DuPont/New England Nuclear.
The reaction was allowed to proceed for 30 minutes at room temperature and then stopped with 0.5 ml of 4% sodium dodecyl sulfate (SDS) followed by 0.5 ml of cold 30% trichloracetic acid (TCA). Samples were allowed to sit on ice for 45 minutes and precipitated Ras protein was then collected on GF/C filter paper mats using a Brandel cell harvester. […] Percent inhibition was calculated relative to the DMSO vehicle control.

[2] = biological target: T2, geranylgeranyl protein transferase (GGPT) I (Rattus norvegicus, UniProt P53610+Q04631); assay: In vitro enzyme assay: inhibition of geranylgeranyl protein transferase I; assay type: biochemical
T2 construct: were partially purified from rat brain by ammonium sulfate fractionation followed by Q-Sepharose; from tissue; host or cells: rat brain
Text: as §1
Both farnesyl protein transferase (FPT) and geranylgeranyl protein transferase (GGPT) I were partially purified from rat brain by ammonium sulfate fractionation followed by Q-Sepharose (Pharmacia, Inc.) anion exchange chromatography essentially as described by Yokoyama et al (Yokoyama, K., et al., (1991). A protein geranylgeranyltransferase from bovine brain: Implications for protein prenylation specificity, Proc. Natl. Acad. Sci USA 88: 5302-5306, the disclosure of which is incorporated herein by reference thereto). Human farnesyl protein transferase was also expressed in E. coli, using cDNA clones encoding both the α and β subunits. The methods used were similar to those published (Omer, C. et al., (1993), Characterization of recombinant human farnesyl protein transferase: Cloning, expression, farnesyl diphosphate binding, and functional homology with yeast prenyl-protein transferase, Biochemistry 32:5167-5176). Human farnesyl protein transferase was partially-purified from the soluble protein fraction of E. coli as described above. the tricyclic farnesyl protein transferase inhibitors disclosed herein inhibited both human and rat enzyme with similar potencies. Two forms of val^12-Ha-Ras protein were prepared as substrates for these enzymes, differing in their carboxy terminal sequence. One form terminated in cysteine-valine-leucine-serine (Ras-CVLS) the other in cystein-valine-leucine-leucine (Ras-CVLL). Ras-CVLS is a substrate for the farnesyl protein transferase while Ras-CVLL is a substrate for geranylgeranyl protein transferase I. The cDNAs encoding these proteins were constructed so that the proteins contain an amino-terminal extension of 6 histidine residues. Both proteins were expressed in Escherichia coli and purified using metal chelate affinity chromatography. The radiolabelled isoprenyl pyrophosphate substrates, [^3H]farnesyl pyrophosphate and [^3H]geranylgeranyl pyrophosphate, were purchased from DuPont/New England Nuclear.
The geranylgeranyl protein transferase I assay was essentially identical to the farnesyl protein transferase assay described above, with two exceptions: [^3H]geranylgeranylpyrophosphate replaced farnesyl pyrophosphate as the isoprenoid donor and Ras-CVLL was the protein acceptor. This is similar to the assay reported by Casey et al (Casey, P. J., et al., (1991), Enzymatic modification of proteins with a geranylgeranyl isoprenoid, Proc. Natl. Acad. Sci, USA 88: 8631-8635, the disclosure of which is incorporated herein by reference thereto).

[3] = system: Ras-CVLS processing in COS monkey kidney cells; assay: Cell-based assay: Ras-CVLS processing in transfected COS cells (immunoblot); conditions: Primates; inhibition of Ras-CVLS processing in Ras-transfected COS cells
Text: 2. Cell-Based Assay: Transient expression of val^12-Ha-Ras-CVLS and val^12-Ha-Ras-CVLL in COS monkey kidney cells: Effect of farnesyl protein transferase inhibitors on Ras processing and on disordered cell growth induced by transforming Ras.
COS monkey kidney cells were transfected by electroporation with the plasmid pSV-SPORT (Gibco/BRL) containing a cDNA insert encoding either Ras-CVLS or Ras-CVLL, leading to transient overexpression of a Ras substrate for either farnesyl protein transferase or geranylgeranyl protein transferase I, respectively (see above).
Following electroporation, cells were plated into 6-well tissue culture dishes containing 1.5 ml of Dulbecco's-modified Eagle's media (GIBCO, Inc.) supplemented with 10% fetal calf serum and the appropriate farnesyl protein transferase inhibitors. After 24 hours, media was removed and fresh media containing the appropriate drugs was re-added.
48 hours after electroporation cells were examined under the microscope to monitor disordered cell growth induced by transforming Ras. Cells expressing transforming Ras become more rounded and refractile and overgrow the monolayer, reminiscent of the transformed phenotype. Cells were then photographed, washed twice with 1 ml of cold phosphate-buffered saline (PBS) and removed from the dish by scraping with a rubber policeman into 1 ml of a buffer containing 25 mM Tris, pH 8.0; 1 mM ethylenediamine tetraacetic acid; 1 mM phenylmethylsulfonyl fluoride; 50 μM leupeptin; and 0.1 μM pepstatin. Cells were lysed by homogenization and cell debris was removed by centrifugation at 2000×g for 10 min.
Cellular protein was precipitated by addition of ice-cold trichloroacetic acid and redissolved in 100 μl of SDS-electrophoresis sample buffer. Samples (5-10 μl) were loaded onto 14% polyacrylamide minigels (Novex, Inc.) and electrophoresed until the tracking dye neared the bottom of the gel. Proteins resolved on the gels were electroblotted onto nitrocellulose membranes for immunodetection.
Membranes were blocked by incubation overnight at 4° C. in PBS containing 2.5% dried milk and 0.5% Tween-20 and then incubated with a Ras-specific monoclonal antibody, Y13-259 (Furth, M. E., et al., (1982), Monoclonal antibodies to the p21 products of the transforming gene of Harvey murine sarcome virus and of the cellular ras gene family, J. Virol. 43: 294-304), in PBS containing 1% fetal calf serum for one hour at room temperature. After washing, membranes were incubated for one hour at room temperature with a 1:5000 dilution of secondary antibody, rabbit anti-rat IgG conjugated to horseradish peroxidase, in PBS containing 1% fetal calf serum. The presence of processed and unprocessed Ras-CVLS or Ras-CVLL was detected using a calorimetric peroxidase reagent (4-chloro-1-naphthol) as described by the manufacturer (Bio-Rad).

[4] = system: T24-BAG4 human bladder carcinoma cells expressing an activated H-ras gene; assay: Cell Mat assay: inhibition of tumor cell growth; assay type: cell-based; conditions: for IC50: tIC50
Method: (§2) Normal human HEPM fibroblasts were planted in 3.5 cm dishes at a density of 5×10^4 cells/dish in 2 ml growth medium, and incubated for 3-5 d to achieve confluence. Medium was aspirated from each dish and the indicator tumor cells, T24-BAG4 human bladder carcinoma cells expressing an activated H-ras gene, were planted on top of the fibroblast monolayer at a density of 2×10^3cells/dish in 2 ml growth medium, and allowed to attach overnight. Compound-induced colony inhibition was assayed by addition of serial dilutions of compound directly to the growth medium 24 h after tumor cell planting, and incubating cells for an additional 14 d to allow colony formation. Assays were terminated by rinsing monolayers twice with phosphate-buffered saline (PBS), fixing the monolayers with a 1% glutaraldehyde solution in PBS, then visualizing tumor cells by staining with X-Gal (Price, J., et al., Lineage analysis in the vertebrate nervous system by retrovirus-mediated gene transfer, Proc. Natl. Acad. Sci.84, 156-160(1987)). […] Both IC50 values were obtained by determining the density of tumor cells and mat cells by visual inspection and enumeration of cells per colony and the number of colonies under the microscope. The therapeutic index of the compound was quantitatively expressed as the ratio of mIC50/tIC50, with values greater than one indicative of tumor target specificity.

[5] = system: Normal human HEPM fibroblasts; assay: Cell Mat assay: inhibition of normal cell growth; assay type: cell-based; conditions: Homo sapiens, Fibroblast, mIC50, normal cell monolayer
Method: as §2

[6] = Ras-CVLS farnesylation, partially purified rat brain FPT, read-out: FPT IC50

Work on `CCOC(=O)N1CCC(C2c3ccc(Cl)cc3C=Cc3ccc[n+]([O-])c32)CC1` (stereo not shown) yielded a melting point of 78.6 to 89.4 °C.
Molecule `O=C(Oc1cccnc1)N1CCC(C2c3ccc(Cl)cc3C=Cc3cccnc32)CC1` (stereo not shown) has a melting point of 102.1 to 103.9 °C.
With `CCSC(=O)N1CCC(=C2c3ccc(Cl)cc3CCc3cccnc32)CC1` [Compound 500.00] the IC50 [1, 6] was 1600 nM, the “selective for FPT inhibition (versus GGPT)” value ([2]; FPT versus GGPT) was “at least 31 fold” and the inhibition at 50 µM ([2]; at 50 μM) was 7%. For the same molecule, the IC50 [3] was 22 µM, the “selective antiproliferative activity against Ras-transformed cells versus normal cells” value (shortened to “selective antiproliferative activity”) [4] was “no” and the IC50 ([4]; Homo sapiens) was 25 µM. For the same molecule, the IC50 [5] was 25 µM.
`CCOC(=O)N1CCN(C2c3ccc(Cl)cc3CCc3cccnc32)CC1` (stereo not shown) [Compound 550.00, Ethyl 4-(8-chloro-6,11-dihydro-11H-benzo[5,6]cyclohepta[1,2-b]pyridin-11-yl)-1-piperazinecarboxylate] showed an IC50 [1, 6] of 7200 nM, an IC50 [3] greater than 20 µM and an IC50 ([4]; Homo sapiens) of 18 µM. The IC50 [4] was 25 µM and the IC50 [5] was greater than 50 µM.
For `O=C(Oc1ccccc1)N1CCC(=C2c3ccc(Cl)cc3CCc3cccnc32)CC1` [Compound 565.00], the IC50 [1, 6] was 840 nM and the IC50 [3] was 6.7 µM.
In the case of `CC(C)COC(=O)N1CCC(=C2c3ccc(Cl)cc3CCc3cccnc32)CC1` [Compound 575.00], the IC50 [1, 6] is reported as 4400 nM, the IC50 [3] is reported as 9.9 µM and the IC50 ([4]; Homo sapiens) is reported as 37 µM. For the same molecule, the IC50 [5] was greater than 50 µM.
Molecule `O=C(Sc1ccccc1)N1CCC(=C2c3ccc(Cl)cc3CCc3cccnc32)CC1` [Compound 595.00, 4-(8-chloro-5,6-dihydro-11H-benzo[5,6]cyclohepta[1,2-b]-pyridin-11ylidene)-1-piperinecarbothioic Acid, S-phenyl Ester] has an IC50 [3] of 5.1 µM, an IC50 ([4]; Homo sapiens) of 18 µM and an IC50 [5] greater than 50 µM. For the same molecule, the melting point was 175 to 177 °C.
With `O=C(Oc1cccnc1)N1CCN([C@@H]2c3ccc(Cl)cc3CCc3cccnc32)CC1` [Compound 600.00, (+) 3-pyridyl 4-(8-chloro-6,11-dihydro-5H-benzo[5,6]-cyclohepta[1,2-b]pyridin-11(R)-yl)-1-piperazine Carboxylate] the IC50 [1] was 1280 nM, the IC50 [3] was 6.9 µM and the IC50 ([4]; Homo sapiens) was 12.5 µM. The IC50 [5] was 50 µM.
`O=C(Oc1cccnc1)N1CCN([C@H]2c3ccc(Cl)cc3CCc3cccnc32)CC1` [Compound 608.00, (−) 3-pyridyl 4-(8-chloro-6,11-dihydro-5H-benzo[5,6]-cyclohepta[1,2-b]pyridin-11(S)-yl)-1-piperazinecarboxylate] showed an IC50 [1] of 820 nM, an IC50 [3] of 3.9 µM and an IC50 ([4]; Homo sapiens) of 37 µM. The IC50 [5] was greater than 50 µM.
Work on `O=C(Oc1cccnc1)N1CCN(C2c3ccc(Cl)cc3CCc3cccnc32)CC1` (stereo not shown) [Compound 610.00, 3-pyridyl 4-(8-chloro-6,11-dihydro-5H-benzo[5,6]-cyclohepta[1,2-b]pyridin-11-yl)-1-piperazinecarboxylate] yielded an IC50 [1] of 500 nM and an IC50 [3] of 3 µM.
For `O=C(Oc1ccccc1)N1CCN(C2c3ccc(Cl)cc3CCc3cccnc32)CC1` (stereo not shown) [Compound 612.00], the IC50 [1] was 800 nM, the IC50 [3] was 4.8 µM and the “selective antiproliferative activity” value [4] was “little”. It also gave an IC50 ([4]; Homo sapiens) of 50 µM and an IC50 [5] greater than 50 µM.
Work on `CCOC(=O)N1CCC(C2c3ccc(Cl)cc3CCc3cccnc32)CC1` (stereo not shown) [Compound 618.00] yielded an IC50 [1, 6] of 1220 nM, an IC50 ([2]; Ras-CVLL as acceptor, read-out: GGPT IC 50) greater than 50 µM and an IC50 [3] of 20.5 µM. For the same molecule, the “selective antiproliferative activity” value [4] was “little”, the IC50 ([4]; Homo sapiens) was greater than 50 µM and the IC50 [5] was greater than 50 µM.
`CCOC(=O)N1CCC(=C2c3ccc(Cl)cc3CCc3c(On4nnc5ccccc54)ccnc32)CC1` [Compound 654.00, Ethyl 4-[4-[(1H-benzotriazol-1-yl)oxy]-8-chloro-5,6-dihydro-11H-benzo[5,6]cyclohepta[1,2-b]pyridin-11-ylidene]-1-piperidine Carbamate] showed an IC50 [1, 6] of 11600 nM and a melting point of 181.5 to 183.9 °C.
For `CN1CCC(OC(=O)N2CCN(C3c4ccc(Cl)cc4CCc4cc(Br)cnc43)CC2)CC1` (stereo not shown) [Compound 803.00], the IC50 [1, 6] was 310 nM and the IC50 [3] was greater than 5 µM.
